SMILES	melting point [°C]
O=[N+]([O-])c1ccc(Cl)c(C(=S)Nc2ccc(Sc3ncc(C(F)(F)F)cc3Cl)cc2)c1 [Compound No. 5, N-(4-(3-chloro-5-trifluoromethyl-2-pyridylthio)phenyl)-2-chloro-5-nitrothiobenzamide]	72 to 73
COc1cc(OC)nc(OCCCNC(=S)c2cc([N+](=O)[O-])ccc2Cl)n1 [Compound No. 18, N-(3-(4,6-dimethoxy-2-pyrimidinyloxy)propyl)-2-chloro-5-nitrothiobenzamide]	119 to 120
CN(C)c1cc(C(F)(F)F)cc(OCCCNC(=S)c2cc([N+](=O)[O-])ccc2Cl)n1 [Compound No. 8, N-(3-(6-dimethylamino-4-trifluoromethyl-2-pyridyloxy)propyl)-2-chloro-5-nitrothiobenzamide]	102 to 103
O=[N+]([O-])c1ccc(Cl)c(C(=S)Nc2ccc(Sc3cc(C(F)(F)F)cc(Cl)n3)cc2)c1 [Compound No. 7, N-(4-(6-chloro-4-trifluoromethyl-2-pyridylthio)phenyl)-2-chloro-5-nitrothiobenzamide]	183 to 186
O=[N+]([O-])c1ccc(Cl)c(C(=S)Nc2ccc(Oc3ncc(C(F)(F)F)cc3Cl)cc2)c1 [Compound No. 1, N-(4-(3-chloro-5-trifluoromethyl-2-pyridyloxy)phenyl)-2-chloro-5-nitrothiobenzamide]	186 to 187
CN(C)c1cc(C(F)(F)F)cc(OCCCNC(=S)c2cc([N+](=O)[O-])ccc2F)n1 [Compound No. 16, N-(3-(6-dimethylamino-4-trifluoromethyl-2-pyridyloxy)propyl)-2-fluoro-5-nitrothiobenzamide]	130 to 133
FC(F)(F)c1cnc(Oc2ccc(NC(=S)c3cnc(Cl)cc3Cl)cc2)c(Cl)c1 [Compound No. 13, N-(4-(3-chloro-5-trifluoromethyl-2-pyridyloxy)phenyl)-4,6-dichlorothionicotinamide]	175 to 176
O=[N+]([O-])c1ccc(Cl)c(C(=S)Nc2ccc(Oc3ncc(C(F)(F)F)cc3Cl)cc2F)c1 [Compound No. 11, N-(4-(3-chloro-5-trifluoromethyl-2-pyridyloxy)-2-fluorophenyl)-2-chloro-5-nitrothiobenzamide]	193
COc1cc(OC)nc(Oc2ccc(NC(=S)c3cc([N+](=O)[O-])ccc3Cl)cc2)n1 [Compound No. 19, N-(4-(4,6-dimethoxy-2-pyrimidinyloxy)phenyl)-2-chloro-5-nitrothiobenzamide]	220 to 222
O=[N+]([O-])c1ccc(Cl)c(C(=S)Nc2ccc(Oc3cc(C(F)(F)F)cc(Cl)n3)cc2)c1 [Compound No. 2, N-(4-(6-chloro-4-trifluoromethyl-2-pyridyloxy)phenyl)-2-chloro-5-nitrothiobenzamide]	186 to 187
O=[N+]([O-])c1ccc(Cl)c(C(=S)NCCCOc2cc(C(F)(F)F)cc(N3CCSCC3)n2)c1 [Compound No. 4, N-(3-(6-thiomorpholino-4-trifluoromethyl-2-pyridyloxy)propyl)-2-chloro-5-nitrothiobenzamide]	132 to 133
N#Cc1ccc(Cl)c(C(=S)Nc2ccc(Oc3ncc(C(F)(F)F)cc3Cl)c(-n3cccc3)c2)c1 [Compound No. 17, N-(4-(3-chloro-5-trifluoromethyl-2-pyridyloxy)-3-(1H-pyrrol-1-yl)phenyl)-2-chloro-5-cyanothiobenzamide]	229 to 230
O=[N+]([O-])c1ccc(F)c(C(=S)Nc2ccc(Oc3ncc(C(F)(F)F)cc3Cl)cc2F)c1 [Compound No. 12, N-(4-(3-chloro-5-trifluoromethyl-2-pyridyloxy)-2-fluorophenyl)-2-fluoro-5-nitrothiobenzamide]	146 to 147
O=[N+]([O-])c1ccc(Cl)c(C(=S)Nc2ccc(Nc3ncc(C(F)(F)F)cc3Cl)cc2)c1 [Compound No. 6, N-(4-(3-chloro-5-trifluoromethyl-2-pyridylamino)phenyl)-2-chloro-5-nitrothiobenzamide]	199 to 200

— patent US7632865B2, “Thioamides and salts thereof and cytokine production inhibitors containing both” (Ishihara Sangyo Kaisha, Ltd., priority 2004, dated 2009)
